From patent US9925231B2, “Formulations of guanylate cyclase C agonists and methods of use” (SYNERGY PHARMACEUTICALS, INC., priority 2010, dated 2018)
Where a SMILES comes first, the peptide text is derived from it. Bridges are numbered along the chain shown (N, C = ends).

Experiments:
[1] = Clinical study in CIC patients: pharmacokinetic profile of SP-304 in plasma; format: in vivo, Humans; conditions: oral, 14 days, assay sensitivity ≥10 ng/mL
Protocol: (§1) A randomized, double-blind, placebo-controlled, 14-day repeat oral, dose ranging study was conducted in patients with chronic idiopathic constipation (CIC). […] One secondary objective was to assess the pharmacokinetic profile of SP-304 in plasma.
(§2) Subjects diagnosed with CIC were screened for the anticipated 4 cohorts to yield 80 randomized subjects for enrollment. […] Subjects who continued to meet all the entry criteria and complete the pre-treatment bowel movement (BM) diary received, in a double-blind, randomized fashion, SP-304 or matching placebo. The entry criteria included (1) meeting modified ROME III criteria for chronic constipation (CC); (2) no significant finding in colonoscopy within past 5 years; (3) good health as determined by physical examination, medical history, vital signs, ECG, clinical chemistry, hematology, urinalysis, drug screen and serology assessments; and (4) during 14-day pre-treatment period, subjects reporting <6 SBM and <3 CSBM in each pre-treatment week.
(§3) The majority of adverse events were mild/moderate and transient in nature. […] The table below is a GI-related adverse event (AE) summary.

[2] = tested on: patients with chronic idiopathic constipation (CIC); format: in vivo
Protocol: as §1, §2, §3

[3] = tested on: patients with chronic idiopathic constipation (CIC); experiment: Clinical study in CIC patients: pharmacodynamic effects (efficacy), bowel habits; format: in vivo, Humans; conditions: for time to first bowel movement: after daily dose
Protocol: as §1, §2

[4] = Excipient compatibility: percent purity (HPLC) of SP-304 in binary mixtures stored at 40 C/75RH; format: physicochemical
Description: For solid excipients the binary mixtures were comprised of 9.1% or 50% excipient. Glass vials were stored at 40 C/75RH open or closed.

[5] = 14-day repeat oral dosing, CIC patients
[6] = daily treatment 14 days, CIC patients

With `CC(C)C[C@H](NC(=O)[C@@H]1CSSC[C@@H]2NC(=O)[C@H](CC(C)C)NC(=O)[C@H](CCC(=O)O)NC(=O)[C@@H](NC(=O)[C@H](CCC(=O)O)NC(=O)[C@H](CC(=O)O)NC(=O)[C@@H](N)CC(N)=O)CSSC[C@H](NC(=O)[C@H](C)NC(=O)[C@H](C(C)C)NC(=O)[C@H](CC(N)=O)NC(=O)[C@H](C(C)C)NC2=O)C(=O)N[C@@H]([C@@H](C)O)C(=O)NCC(=O)N1)C(=O)O` [SP-304, Asn^1-Asp^2-Glu^3-Cys^4-Glu^5-Leu^6-Cys^7-Val^8-Asn^9-Val^10-Ala^11-Cys^12-Thr^13-Gly^14-Cys^15-Leu^16] (H-NDECELCVNVACTGCL-OH; disulfide 4-12, 7-15) the “systemic absorption of plecanatide” value [1] was “no detectable systemic absorption”, the deaths [2, 5] was “no deaths reported” and the “serious adverse events (SAE)” value [2, 5] was “No serious adverse events”. For the same molecule, the diarrhea ([2]; human, in vivo) was “no diarrhea reported”, the “subjects reporting GI-related adverse events considered as related to treatment” value ([2]; human, in vivo) was 5.2% and the “subjects reporting adverse events considered as related to the treatment” value ([2]; human, in vivo) was 17.2%. For the same molecule, the stool consistency ([3]; Bristol Stool Form Scale, daily treatment 14 days) was “improved”, the “time to first bowel movement” value ([3]; CIC patients) was “decreased” and the “time to first bowel movement” value ([3]; CIC patients, listed as Plecanatide) was “reduced”. The abdominal discomfort [3, 6] was “reduced”, the “stool frequency (CSBM)” value [3, 6] was “increased” and the “stool frequency (SBM)” value [3, 6] was “increased”. For the same molecule, the straining [3, 6] was “reduced”, the “percent purity of SP-304 (HPLC), Closed 1 M” value ([4]; closed glass vial, 1 month) was 91.4% and the “percent purity of SP-304 (HPLC), Closed 2 M” value ([4]; closed glass vial, 2 months) was 88.2%. For the same molecule, the “percent purity of SP-304 (HPLC), Open 0.5 M” value ([4]; open glass vial, 0.5 month) was 93.7%, the “percent purity of SP-304 (HPLC), Open 1 M” value ([4]; open glass vial, 1 month) was 91.2% and the “percent purity of SP-304 (HPLC), Open 2 M” value ([4]; open glass vial, 2 months) was 88.2%. For the same molecule, the “percent purity of SP-304 (HPLC), Open 3 M” value ([4]; open glass vial, 3 months) was 84.8%.
